PMC11149885 (PLOS ONE, 2024)
“And” between values parts separate entries of the source, which are not always exact repeats. Identical values can stand only once.

What was measured:
[1] = synthetic melanin, 0.06 to 25.0μM, 37°C, 1 hour, ± SEM
[2] = test system: VEGF-induced angiogenesis on the CAM; test: Gelatin sponge chick chorioallantoic membrane (CAM) assay
[3] = test system: VEGF-A–induced sprouting of HUVECs; test: HUVEC spheroid sprouting assay; type: cell-based, human; conditions: for cumulative sprout length per spheroid (CSL), mean: 25 ng/mL VEGF-165, 24 hours
Protocol: The three TKI compounds were tested by Reaction Biology Europe (Freiburg, Germany) in the spheroid-based cellular angiogenesis assay to determine their effect on VEGF-A–induced sprouting of HUVECs. Primary HUVECs from pooled donors at passage 3 to 4 (PromoCell, Heidelberg, Germany) were grown in endothelial cell growth and basal medium (ECGM/ECBM, PromoCell). Test compounds were prepared as 100-fold concentrated stock solutions in DMSO and pre-diluted in basal medium. HUVECs were stimulated using 25 ng/mL VEGF-165 (Reaction Biology Europe, Freiburg, Germany) pre-diluted in basal medium.
Spheroids were prepared as described by pipetting 400 HUVECs in a hanging drop on plastic dishes to allow overnight spheroid aggregation. Fifty HUVEC spheroids were seeded in 0.9 mL of a collagen gel and pipetted into individual wells of a 24-well plate to allow polymerization. Test compounds and VEGF-165 were added after 30 minutes by pipetting 100 μL of a ten-fold concentrated solution onto the polymerized gel. Plates were incubated at 37°C for 24 hours, and cells were fixed by adding 4% paraformaldehyde (Roth, Karlsruhe, Germany). Sprouting intensity of HUVEC spheroids treated with the test samples was quantitated using an image analysis system to determine the cumulative sprout length (CSL) per spheroid. Images of single spheroids were captured using an inverted microscope and the digital imaging software NIS-Elements BR 3.0 (Nikon). Spheroid pictures were uploaded to Wimasis (www.wimasis.com) for image analysis. The CSL of each spheroid was determined using the imaging analysis tool WimSprout. The mean CSL of ten randomly selected spheroids was analyzed as an individual data point.

VEGFR2 [4] = molecular target: T1, VEGFR2 (Homo sapiens, UniProt P35968); test: HotSpot kinase screen; type: biochemical; conditions: 10μM ATP
T1 construct: purchased Millipore Corporation (Dundee, Scotland) or Reaction Biology Corporation (contract assay)
T1 sequence (P35968 20-1356): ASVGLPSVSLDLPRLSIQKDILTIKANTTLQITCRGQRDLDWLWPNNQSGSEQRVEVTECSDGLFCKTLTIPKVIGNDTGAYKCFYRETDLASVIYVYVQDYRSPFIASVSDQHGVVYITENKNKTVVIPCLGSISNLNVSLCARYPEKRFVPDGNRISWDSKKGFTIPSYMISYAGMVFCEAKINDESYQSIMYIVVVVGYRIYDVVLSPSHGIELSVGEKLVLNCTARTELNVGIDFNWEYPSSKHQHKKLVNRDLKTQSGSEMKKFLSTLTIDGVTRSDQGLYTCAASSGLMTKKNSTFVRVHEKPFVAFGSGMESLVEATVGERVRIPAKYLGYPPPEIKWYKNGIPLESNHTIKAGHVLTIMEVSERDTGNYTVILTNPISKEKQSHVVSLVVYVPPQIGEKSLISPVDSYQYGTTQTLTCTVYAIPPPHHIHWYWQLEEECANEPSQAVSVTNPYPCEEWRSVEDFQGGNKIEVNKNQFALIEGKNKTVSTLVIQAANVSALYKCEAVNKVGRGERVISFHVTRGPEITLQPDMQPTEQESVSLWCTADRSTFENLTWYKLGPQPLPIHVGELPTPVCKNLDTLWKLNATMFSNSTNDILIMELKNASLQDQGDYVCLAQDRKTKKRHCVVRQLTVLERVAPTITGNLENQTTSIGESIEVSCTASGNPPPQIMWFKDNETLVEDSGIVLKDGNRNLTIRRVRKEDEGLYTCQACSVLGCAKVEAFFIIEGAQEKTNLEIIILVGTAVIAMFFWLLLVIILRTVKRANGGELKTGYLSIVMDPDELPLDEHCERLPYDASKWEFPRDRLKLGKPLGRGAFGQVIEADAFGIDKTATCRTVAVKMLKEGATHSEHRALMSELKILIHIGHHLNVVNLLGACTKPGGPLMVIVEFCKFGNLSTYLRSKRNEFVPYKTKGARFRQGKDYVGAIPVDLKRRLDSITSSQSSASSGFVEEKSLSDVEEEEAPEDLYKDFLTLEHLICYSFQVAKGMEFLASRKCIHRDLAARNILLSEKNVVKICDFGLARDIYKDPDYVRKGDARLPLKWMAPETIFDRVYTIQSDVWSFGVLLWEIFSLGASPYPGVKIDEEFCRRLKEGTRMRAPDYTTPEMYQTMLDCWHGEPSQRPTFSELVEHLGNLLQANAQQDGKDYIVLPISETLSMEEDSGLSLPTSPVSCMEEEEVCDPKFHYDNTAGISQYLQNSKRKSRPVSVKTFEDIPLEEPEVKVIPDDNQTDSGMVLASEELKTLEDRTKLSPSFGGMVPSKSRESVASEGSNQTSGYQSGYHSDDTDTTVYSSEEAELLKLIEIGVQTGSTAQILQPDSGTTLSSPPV

VEGFR1 [5] = molecular target: T2, VEGFR1 (Homo sapiens, UniProt P17948)
T2 sequence (P17948 27-1338): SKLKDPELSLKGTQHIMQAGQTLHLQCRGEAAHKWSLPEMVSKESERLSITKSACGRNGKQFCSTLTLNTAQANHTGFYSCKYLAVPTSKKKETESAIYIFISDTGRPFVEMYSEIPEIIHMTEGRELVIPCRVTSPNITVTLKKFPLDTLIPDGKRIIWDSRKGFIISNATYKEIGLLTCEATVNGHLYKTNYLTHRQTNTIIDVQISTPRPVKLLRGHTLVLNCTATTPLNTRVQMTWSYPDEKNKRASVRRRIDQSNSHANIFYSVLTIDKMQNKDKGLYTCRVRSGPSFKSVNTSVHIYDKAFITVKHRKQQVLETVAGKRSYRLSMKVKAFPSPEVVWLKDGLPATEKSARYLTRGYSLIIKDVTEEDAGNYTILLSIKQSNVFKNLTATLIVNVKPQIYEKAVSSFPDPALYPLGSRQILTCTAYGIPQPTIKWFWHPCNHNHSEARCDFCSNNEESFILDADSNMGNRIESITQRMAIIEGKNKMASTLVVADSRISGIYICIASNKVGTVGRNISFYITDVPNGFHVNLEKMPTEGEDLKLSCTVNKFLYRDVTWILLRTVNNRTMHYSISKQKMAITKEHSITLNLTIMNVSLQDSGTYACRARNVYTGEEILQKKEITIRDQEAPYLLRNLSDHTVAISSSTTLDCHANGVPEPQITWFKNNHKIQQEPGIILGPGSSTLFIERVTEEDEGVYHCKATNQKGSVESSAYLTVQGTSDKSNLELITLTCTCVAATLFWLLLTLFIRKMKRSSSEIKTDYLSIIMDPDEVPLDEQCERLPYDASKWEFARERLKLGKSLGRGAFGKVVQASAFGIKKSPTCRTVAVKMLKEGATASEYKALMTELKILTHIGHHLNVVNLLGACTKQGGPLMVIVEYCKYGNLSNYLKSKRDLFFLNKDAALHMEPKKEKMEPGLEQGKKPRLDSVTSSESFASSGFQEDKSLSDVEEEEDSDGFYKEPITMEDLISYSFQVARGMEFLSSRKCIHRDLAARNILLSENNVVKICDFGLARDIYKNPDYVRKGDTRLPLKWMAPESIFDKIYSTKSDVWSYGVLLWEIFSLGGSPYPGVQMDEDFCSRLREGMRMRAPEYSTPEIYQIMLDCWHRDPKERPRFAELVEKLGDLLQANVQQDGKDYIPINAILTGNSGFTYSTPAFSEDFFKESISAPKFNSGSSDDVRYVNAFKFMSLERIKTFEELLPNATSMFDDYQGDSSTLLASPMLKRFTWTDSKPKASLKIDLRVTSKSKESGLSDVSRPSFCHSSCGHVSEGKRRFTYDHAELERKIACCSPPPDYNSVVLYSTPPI

VEGFR1 [6] = molecular target: T2, VEGFR1; test: HotSpot kinase screen; type: biochemical; design: purchased Millipore Corporation (Dundee, Scotland) or Reaction Biology Corporation (contract assay); conditions: 10μM ATP
Protocol: (§1) Measurement of kinase activity was performed by Reaction Biology Corporation (Reaction Biology Corporation, Malvern, PA), using the HotSpot™ assay. The screen focused on RTKs reported in the literature to play a major role in the regulation of angiogenesis (VEGFR1, VEGFR2, and VEGFR3; fibroblast growth factor receptor [FGFR] 1, 2, and 3; and platelet-derived growth factor receptor beta [PDGFRβ]) as well as an RTK essential for maintaining blood vessel stability (TIE2). For the profiling, specific kinase/substrate pairs and required cofactors were prepared in a reaction buffer (20mM Hepes [pH 7.5], 10mM MgCl2, 1mM EGTA, 0.02% Brij35, 0.02 mg/mL BSA, 0.1mM Na3VO4, 2mM DTT, 1% dimethyl sulfoxide [DMSO]). TKI compounds were diluted to 10μM and 1μM concentrations for the screens and after addition to the reaction buffer incubated for 20 minutes, followed by the addition of a mixture of ATP (Sigma, St. Louis, MO) and ^33P-ATP (Perkin Elmer, Waltham, MA) to a final ATP concentration of 10μM. Reactions were carried out at room temperature for 2 hours, followed by spotting of the reactions onto P81 ion exchange filter paper (Whatman Inc., Piscataway, NJ). Unbound phosphate was removed by extensive washing of the filters. […] Kinome TREEspot images representing levels of inhibition were prepared using Kinome Mapper (https://www.reactionbiology.com/resources/tools/kinase-mapper).

VEGFR2 [7] = molecular target: T1, VEGFR2; test: Ten-dose IC50 measurement; type: biochemical; conditions: 10μM ATP
TIE2 [8] = molecular target: T3, TIE2 (Homo sapiens, UniProt Q02763)
T3 sequence (Q02763 23-1124): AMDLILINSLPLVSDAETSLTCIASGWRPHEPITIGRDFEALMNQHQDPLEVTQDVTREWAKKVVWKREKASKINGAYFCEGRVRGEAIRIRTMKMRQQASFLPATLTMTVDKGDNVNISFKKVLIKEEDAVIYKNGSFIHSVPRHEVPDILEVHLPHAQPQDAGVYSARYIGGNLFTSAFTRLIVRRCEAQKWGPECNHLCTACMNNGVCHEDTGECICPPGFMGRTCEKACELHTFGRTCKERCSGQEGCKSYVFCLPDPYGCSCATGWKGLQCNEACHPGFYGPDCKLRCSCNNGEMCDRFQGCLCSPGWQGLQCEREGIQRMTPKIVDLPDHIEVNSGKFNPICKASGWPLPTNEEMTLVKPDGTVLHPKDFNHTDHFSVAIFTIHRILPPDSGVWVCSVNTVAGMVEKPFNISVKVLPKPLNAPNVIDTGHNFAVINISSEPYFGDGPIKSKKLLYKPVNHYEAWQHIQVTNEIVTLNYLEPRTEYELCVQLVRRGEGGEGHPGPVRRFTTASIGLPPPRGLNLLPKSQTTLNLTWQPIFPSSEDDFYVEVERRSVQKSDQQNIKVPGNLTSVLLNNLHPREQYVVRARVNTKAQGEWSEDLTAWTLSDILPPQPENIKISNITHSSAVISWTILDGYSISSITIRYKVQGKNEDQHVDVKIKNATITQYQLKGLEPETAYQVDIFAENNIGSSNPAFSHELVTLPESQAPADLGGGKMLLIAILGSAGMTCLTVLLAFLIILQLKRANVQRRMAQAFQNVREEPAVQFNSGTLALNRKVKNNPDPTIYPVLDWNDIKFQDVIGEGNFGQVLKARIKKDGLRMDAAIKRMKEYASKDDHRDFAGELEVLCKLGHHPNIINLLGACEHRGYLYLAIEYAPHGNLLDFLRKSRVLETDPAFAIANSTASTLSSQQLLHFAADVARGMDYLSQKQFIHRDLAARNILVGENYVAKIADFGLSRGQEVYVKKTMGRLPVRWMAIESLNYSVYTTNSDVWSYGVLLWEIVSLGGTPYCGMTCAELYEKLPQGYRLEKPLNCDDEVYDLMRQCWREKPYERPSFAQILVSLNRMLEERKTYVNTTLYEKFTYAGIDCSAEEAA

FGFR2 = molecular target: T4, FGFR2 (Homo sapiens, UniProt P21802); test: HotSpot kinase screen; type: biochemical; conditions: 10μM ATP
T4 construct: purchased Reaction Biology Corporation (contract assay)
Protocol: as §1

VEGFR3 [9] = molecular target: T5, VEGFR3 (Homo sapiens, UniProt P35916); test: HotSpot kinase screen; type: biochemical; conditions: 10μM ATP
T5 construct: purchased Millipore Corporation (Dundee, Scotland) or Reaction Biology Corporation (contract assay)
T5 sequence (P35916 25-1363): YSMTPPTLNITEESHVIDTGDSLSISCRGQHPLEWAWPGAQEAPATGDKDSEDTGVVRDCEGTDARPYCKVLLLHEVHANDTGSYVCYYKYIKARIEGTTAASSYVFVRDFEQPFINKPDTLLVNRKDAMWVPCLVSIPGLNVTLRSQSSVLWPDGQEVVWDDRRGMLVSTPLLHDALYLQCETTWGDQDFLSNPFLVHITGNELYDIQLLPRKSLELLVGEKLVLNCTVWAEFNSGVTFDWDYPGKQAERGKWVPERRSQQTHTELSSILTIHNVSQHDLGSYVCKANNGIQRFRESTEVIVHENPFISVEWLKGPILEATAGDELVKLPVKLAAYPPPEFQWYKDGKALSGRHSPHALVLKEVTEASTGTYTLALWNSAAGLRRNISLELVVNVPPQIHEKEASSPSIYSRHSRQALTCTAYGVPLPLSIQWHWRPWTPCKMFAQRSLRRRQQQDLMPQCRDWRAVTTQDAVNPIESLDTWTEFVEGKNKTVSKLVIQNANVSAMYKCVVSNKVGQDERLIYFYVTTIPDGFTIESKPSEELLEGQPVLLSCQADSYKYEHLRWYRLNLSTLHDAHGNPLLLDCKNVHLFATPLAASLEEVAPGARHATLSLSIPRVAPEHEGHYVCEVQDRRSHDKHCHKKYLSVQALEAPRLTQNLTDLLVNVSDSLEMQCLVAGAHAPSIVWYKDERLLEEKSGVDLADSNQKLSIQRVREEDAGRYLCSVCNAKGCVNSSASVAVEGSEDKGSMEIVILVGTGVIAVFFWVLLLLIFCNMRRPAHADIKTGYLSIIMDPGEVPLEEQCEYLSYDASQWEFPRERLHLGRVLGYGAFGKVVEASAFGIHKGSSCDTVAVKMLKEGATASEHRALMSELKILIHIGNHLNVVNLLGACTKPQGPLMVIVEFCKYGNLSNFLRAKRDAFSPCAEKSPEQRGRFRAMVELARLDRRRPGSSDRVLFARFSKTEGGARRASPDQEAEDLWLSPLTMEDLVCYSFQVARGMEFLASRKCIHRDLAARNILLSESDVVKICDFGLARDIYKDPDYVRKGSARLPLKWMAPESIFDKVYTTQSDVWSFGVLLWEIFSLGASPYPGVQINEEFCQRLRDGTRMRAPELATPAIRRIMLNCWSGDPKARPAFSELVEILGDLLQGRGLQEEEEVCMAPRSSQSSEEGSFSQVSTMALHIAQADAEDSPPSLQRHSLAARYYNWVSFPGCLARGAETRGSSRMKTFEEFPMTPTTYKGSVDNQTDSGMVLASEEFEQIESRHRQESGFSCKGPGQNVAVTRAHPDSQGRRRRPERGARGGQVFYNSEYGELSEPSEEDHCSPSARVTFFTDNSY
Protocol: as §1

VEGFR1 [10] = molecular target: T2, VEGFR1; test: Ten-dose IC50 measurement; conditions: 10μM ATP
TIE2 [11] = molecular target: T3, TIE2; test: Ten-dose IC50 measurement; conditions: 10μM ATP
TIE2 [12] = molecular target: T3, TIE2; test: HotSpot kinase screen; type: biochemical; design: purchased Reaction Biology Corporation (contract assay); conditions: 10μM ATP
VEGFR3 [13] = molecular target: T5, VEGFR3; test: Ten-dose IC50 measurement; type: biochemical; conditions: 10μM ATP

CCN(CC)CCCC(C)Nc1ccnc2cc(Cl)ccc12 (centres unmarked) [Chloroquine]
Kd [1]: 3.06 ± 0.6 µM

CNC(=O)c1ccccc1Sc1ccc2c(/C=C/c3ccccn3)n[nH]c2c1 [Axitinib]
Angiogenesis - Vessel number, Mean ([2]; TKI at 200 x VEGFR2 IC50): 11.1
Angiogenesis - Vessel number, individual egg ([2]; TKI at 200 x VEGFR2 IC50, one value per egg): 9.33 and 12.67 and 12 and 10.33
reduction of the number of blood vessels perfusing the sponges vs negative control ([2]; TKI at VEGFR2 IC50 dose): 24.6%
Angiogenesis - Vessel thickness score, Mean ([2]; TKI at VEGFR2 IC50 dose, score 0-3): 0.9
Angiogenesis - Vessel thickness score, individual egg ([2]; TKI at VEGFR2 IC50 dose, score 0-3, one value per egg): 0.33 and 1.33 and 0 and 1.67
cumulative sprout length per spheroid (CSL), mean ([3]; 1.00E-05 M TKI): 259
cumulative sprout length per spheroid (CSL), mean ([3]; 1.00E-06 M TKI): 441
cumulative sprout length per spheroid (CSL), mean ([3]; 1.00E-07 M TKI): 459
cumulative sprout length per spheroid (CSL), mean ([3]; 3.00E-06 M TKI): 354
cumulative sprout length per spheroid (CSL), mean ([3]; 3.00E-07 M TKI): 373
cumulative sprout length per spheroid (CSL), mean ([3]; 3.00E-08 M TKI): 379
vessel sprouting (representative spheroid images) ([3]; highest test concentration of 1×10^–5M): zero vessel sprouting
Avg % Inhibition VEGFR2 (VEGFR2 [4]; 1uM TKI): 100%
Avg % Inhibition VEGFR2 (VEGFR2 [4]; 10uM TKI): 90.96%
activity (VEGFR1 [5]): 5.07%
Avg % Inhibition VEGFR1 (VEGFR1 [6]; 1uM TKI): 100%
Avg % Inhibition VEGFR1 (VEGFR1 [6]; 10uM TKI): 97.53%
%Activity VEGFR2 (VEGFR2 [7]; 1.00E-05 M TKI): 7.43%
%Activity VEGFR2 (VEGFR2 [7]; 1.11E-06 M TKI): 4.53%
%Activity VEGFR2 (VEGFR2 [7]; 1.23E-07 M TKI): 7.10%
%Activity VEGFR2 (VEGFR2 [7]; 1.37E-08 M TKI): 13.24%
%Activity VEGFR2 (VEGFR2 [7]; 1.52E-09 M TKI): 62.16%
%Activity VEGFR2 (VEGFR2 [7]; 3.33E-06 M TKI): 6.81%
%Activity VEGFR2 (VEGFR2 [7]; 3.70E-07 M TKI): 7.21%
%Activity VEGFR2 (VEGFR2 [7]; 4.12E-08 M TKI): 8.44%
%Activity VEGFR2 (VEGFR2 [7]; 4.57E-09 M TKI): 25.12%
%Activity VEGFR2 (VEGFR2 [7]; 5.08E-10 M TKI): 84.02%
HillSlope VEGFR2 (VEGFR2 [7]; IC50 curve fit): -1.18
activity (TIE2 [8]): 60.1%
Avg % Inhibition FGFR2 (FGFR2; 1uM TKI): 93.95%
Avg % Inhibition FGFR2 (FGFR2; 10uM TKI): 98.81%
Avg % Inhibition VEGFR3 (VEGFR3 [9]; 1uM TKI): 97.27%
Avg % Inhibition VEGFR3 (VEGFR3 [9]; 10uM TKI): 99.21%
%Activity VEGFR1 (VEGFR1 [10]; 1.00E-05 M TKI): -0.87%
%Activity VEGFR1 (VEGFR1 [10]; 1.11E-06 M TKI): -0.31%
%Activity VEGFR1 (VEGFR1 [10]; 1.37E-08 M TKI): 18.99%
%Activity VEGFR1 (VEGFR1 [10]; 1.52E-09 M TKI): 42.18%
%Activity VEGFR1 (VEGFR1 [10]; 3.33E-06 M TKI): -0.89%
%Activity VEGFR1 (VEGFR1 [10]; 4.12E-08 M TKI): 9.96%
%Activity VEGFR1 (VEGFR1 [10]; 4.57E-09 M TKI): 22.02%
%Activity VEGFR1 (VEGFR1 [10]; 5.08E-10 M TKI): 59.50%
%Activity TIE2 (TIE2 [11]; 1.00E-05 M TKI): 10.50%
%Activity TIE2 (TIE2 [11]; 1.11E-06 M TKI): 16.32%
%Activity TIE2 (TIE2 [11]; 1.37E-08 M TKI): 87.12%
%Activity TIE2 (TIE2 [11]; 1.52E-09 M TKI): 98.75%
%Activity TIE2 (TIE2 [11]; 3.33E-06 M TKI): 7.06%
%Activity TIE2 (TIE2 [11]; 3.70E-07 M TKI): 38.01%
%Activity TIE2 (TIE2 [11]; 4.12E-08 M TKI): 78.65%
%Activity TIE2 (TIE2 [11]; 4.57E-09 M TKI): 95.05%
%Activity TIE2 (TIE2 [11]; 5.08E-10 M TKI): 95.58%
Avg % Inhibition TIE2 (TIE2 [12]; 1uM TKI): 81% and 81.47%
Avg % Inhibition TIE2 (TIE2 [12]; 10uM TKI): 89% and 89.11%
Avg % Inhibition TIE2 (TIE2 [12]; 10uM TKI, listed as axitinib): up to 89%
%Activity VEGFR3 (VEGFR3 [13]; 1.00E-05 M TKI): 2.02%
%Activity VEGFR3 (VEGFR3 [13]; 1.11E-06 M TKI): 2.44%
%Activity VEGFR3 (VEGFR3 [13]; 1.37E-08 M TKI): 28.96%
%Activity VEGFR3 (VEGFR3 [13]; 1.52E-09 M TKI): 56.16%
%Activity VEGFR3 (VEGFR3 [13]; 3.33E-06 M TKI): 1.23%
%Activity VEGFR3 (VEGFR3 [13]; 3.70E-07 M TKI): 5.72%
%Activity VEGFR3 (VEGFR3 [13]; 4.57E-09 M TKI): 40.16%
%Activity VEGFR3 (VEGFR3 [13]; 5.08E-10 M TKI): 63.17%
